Experimental data from patent publication US20240252546A1, “NEURITE OUTGROWTH PROMOTION KIT AND USE THEREFOR” (KEIO UNIVERSITY, priority 2021, published 2024).

Legend:
[1] = system: GADD45G; experiment: Expression level of GADD45G in treated neurospheres by RNA-seq (Experimental Example 2); type: cell-based, human; details: vs control
Protocol: Neurospheres derived from 201B7 cells, which are cells of a human iPS cell line, were prepared in the same manner as in Experimental Example 1.
In addition, neurospheres derived from 414C2 cells, which are cells of a human iPS cell line, were prepared according to the following method. First, 414C2 cells were subjected to adhesion culture for 12 days together with fibroblasts derived from a mouse embryo. Subsequently, the cells were subjected to suspension culture for 30 days to form a germ layer body. Subsequently, the aggregated cells were dissociated, cultured in a culture medium obtained by adding 20 ng/ml of FGF2 (PeproTech, Inc.) to an MHM medium of which the composition is shown in Table 1 above, and differentiated into neurospheres.
Subsequently, each neurosphere derived from iPS cells was treated with each of DAPT and Compound 34. Subsequently, one neurosphere having a diameter of about 100 μm was selected from the neurospheres in each group and subjected to an RNA-seq analysis.
FIG. 3 is a graph showing the results obtained by treating the neurosphere derived from 201B7 cells with each of DAPT and Compound 34, carrying out the RNA-seq analysis, and quantifying the expression level of GADD45G based on transcriptome data. In FIG. 3, “Ctl” indicates the result obtained from the control, “DAPT” indicates the result obtained by the DAPT treatment, and “C. 34” indicates the result obtained by Compound 34 treatment.

[2] = system: phosphorylated CDC25B; experiment: Phosphorylated CDC25B in nerve cells after inducing differentiation (Experimental Example 12); type: cell-based, human; details: 201B7 neurospheres treated 24 hours, differentiated 14 days; compared with the untreated case
Protocol: Neurospheres were treated with DAPT or Compound 34, and the amount of phosphorylated CDC25B after inducing differentiation into nerve cells was examined.
Neurospheres derived from 201B7 cells, which are cells of a human iPS cell line, were prepared in the same manner as in Experimental Example 1. Subsequently, each neurosphere was cultured for 24 hours in the presence of each of DAPT and Compound 34. DAPT and Compound 34 were used at the same concentrations as in Experimental Example 1.
Subsequently, each neurosphere was seeded on a 48-well chamber slide (IWAKI & CO., LTD.) coated with poly-L-ornithine/fibronectin, cultured for 14 days in a culture medium containing no growth factor at 37° C. in an environment of 95% air and 5% CO2, and differentiated into nerve cells.
Subsequently, each of the obtained nerve cells was fixed with 4% paraformaldehyde and subjected to immunostaining of each of βIII-tubulin, which is a nerve cell marker, and phosphorylated CDC25B.
FIGS. 20(a) to 20(f) show fluorescence photomicrographs showing the representative results of immunostaining. The scale bar is 100 μm. […]

[3] = system: p38; experiment: Expression level of p38 by RNA-seq (Experimental Example 3); type: cell-based, human; details: 201B7 neurospheres, vs control
Source text: FIG. 6 is a graph showing the results obtained by treating the neurosphere derived from 201B7 cells with each of DAPT and Compound 34, carrying out the RNA-seq analysis, and quantifying the expression level of p38 based on transcriptome data.

[4] = system: spinal cord injury in the chronic phase; details: DAPT used on a neurosphere, neurosphere then transplanted into the site of injury; cited from earlier work
[5] = system: nerve cells induced to differentiate from a neurosphere; details: nerve cells from a neurosphere on which DAPT has been allowed to act; cited from earlier work
[6] = neurosphere derived from 201B7 cells
[7] = neurosphere derived from 414C2 cells

Row | Compound | expression of GADD45G [1, 6] | expression of GADD45G [1, 7] | amount of phosphorylated CDC25B after inducing differentiation into nerve cells [2] | expression level of p38 [3] | treatment of spinal cord injury in the chronic phase [4] | neurite outgrowth [5] | phosphorylation of p38 MAPK [5]
1 | O=C1Nc2ccccc2C(c2ccccc2)=N[C@@H]1NC(=O)[C@H](c1ccc(F)cc1)[C@@H](CO)c1ccc(F)c(F)c1 [Compound 34] | significantly increased | significantly increased | increased | not increased |  |  | 
2 | C[C@H](NC(=O)Cc1cc(F)cc(F)c1)C(=O)N[C@H](C(=O)OC(C)(C)C)c1ccccc1 [DAPT] | significantly increased | significantly increased | increased | not increased | can be treated | promoted | increased
